Results: patent US12685735B2 (Foghorn Therapeutics Inc., priority 2020, dated 2026)

Tests used:
BRM = BRM (Homo sapiens, UniProt P51531); assay: ATPase catalytic activity assay of BRM (ADP-Glo); format: biochemical; conditions: for IC50: read-out: BRM IC50 (μM)*
How it was run: (§1)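 ADP formed by the ATPase reaction was quantified by ADP-Glo luminescence. After the reaction, unconsumed ATP was depleted (40 min, room temperature), then ADP was converted to ATP for luciferase detection (60 min, room temperature) before reading on a luminometer.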

BRG-1 = BRG-1 (Homo sapiens, UniProt P51532); assay: ATPase catalytic activity assay of BRG-1 (ADP-Glo); format: biochemical; conditions: ATPase catalytic activity, ADP-Glo; for IC50: read-out: BRG1 IC50 (μM)*; for Emax: read-out: BRG1 Max % Inhibition
How it was run: as §1

BRG-1, sequence (P51532 whole entry): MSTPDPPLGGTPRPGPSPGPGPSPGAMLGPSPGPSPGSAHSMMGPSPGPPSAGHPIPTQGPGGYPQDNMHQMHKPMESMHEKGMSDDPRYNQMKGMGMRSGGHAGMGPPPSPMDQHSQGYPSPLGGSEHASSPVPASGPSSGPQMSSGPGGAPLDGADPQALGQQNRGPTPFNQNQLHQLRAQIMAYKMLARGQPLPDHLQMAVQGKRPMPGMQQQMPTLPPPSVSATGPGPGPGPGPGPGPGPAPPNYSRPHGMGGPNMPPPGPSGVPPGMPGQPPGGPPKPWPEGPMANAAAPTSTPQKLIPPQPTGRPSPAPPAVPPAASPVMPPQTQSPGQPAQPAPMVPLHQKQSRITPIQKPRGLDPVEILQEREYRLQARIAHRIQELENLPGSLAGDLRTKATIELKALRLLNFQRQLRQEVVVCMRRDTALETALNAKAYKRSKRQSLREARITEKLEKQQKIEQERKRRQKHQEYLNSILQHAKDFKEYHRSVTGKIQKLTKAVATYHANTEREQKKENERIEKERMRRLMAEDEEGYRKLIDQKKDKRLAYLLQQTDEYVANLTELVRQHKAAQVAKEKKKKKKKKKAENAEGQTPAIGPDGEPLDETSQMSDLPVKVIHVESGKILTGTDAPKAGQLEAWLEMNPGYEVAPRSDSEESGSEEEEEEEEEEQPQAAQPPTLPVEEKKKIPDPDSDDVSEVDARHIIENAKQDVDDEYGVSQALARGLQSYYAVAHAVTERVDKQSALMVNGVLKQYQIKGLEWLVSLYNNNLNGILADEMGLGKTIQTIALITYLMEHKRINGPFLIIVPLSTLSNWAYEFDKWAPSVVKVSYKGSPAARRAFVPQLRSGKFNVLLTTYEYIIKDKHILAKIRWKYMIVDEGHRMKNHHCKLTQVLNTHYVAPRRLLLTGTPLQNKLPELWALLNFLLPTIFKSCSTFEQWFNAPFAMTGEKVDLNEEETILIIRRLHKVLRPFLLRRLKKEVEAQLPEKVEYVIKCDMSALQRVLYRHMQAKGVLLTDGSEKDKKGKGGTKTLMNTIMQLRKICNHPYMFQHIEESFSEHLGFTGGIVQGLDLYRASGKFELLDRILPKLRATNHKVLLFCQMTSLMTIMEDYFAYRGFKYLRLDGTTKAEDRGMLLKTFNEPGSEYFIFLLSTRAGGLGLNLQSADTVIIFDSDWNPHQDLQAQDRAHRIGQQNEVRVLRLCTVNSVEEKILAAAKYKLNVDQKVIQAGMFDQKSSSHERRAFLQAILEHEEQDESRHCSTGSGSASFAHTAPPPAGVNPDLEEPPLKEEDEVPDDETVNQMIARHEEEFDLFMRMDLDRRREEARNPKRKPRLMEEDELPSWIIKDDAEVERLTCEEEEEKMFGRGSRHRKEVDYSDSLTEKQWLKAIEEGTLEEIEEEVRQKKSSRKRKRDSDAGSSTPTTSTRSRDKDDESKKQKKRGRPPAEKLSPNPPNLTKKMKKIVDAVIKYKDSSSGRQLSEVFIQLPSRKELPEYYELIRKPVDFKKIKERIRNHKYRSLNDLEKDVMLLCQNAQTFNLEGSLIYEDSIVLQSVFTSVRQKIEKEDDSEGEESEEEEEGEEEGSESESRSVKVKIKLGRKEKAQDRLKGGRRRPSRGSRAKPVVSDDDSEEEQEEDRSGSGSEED
BRM, sequence (P51531 whole entry): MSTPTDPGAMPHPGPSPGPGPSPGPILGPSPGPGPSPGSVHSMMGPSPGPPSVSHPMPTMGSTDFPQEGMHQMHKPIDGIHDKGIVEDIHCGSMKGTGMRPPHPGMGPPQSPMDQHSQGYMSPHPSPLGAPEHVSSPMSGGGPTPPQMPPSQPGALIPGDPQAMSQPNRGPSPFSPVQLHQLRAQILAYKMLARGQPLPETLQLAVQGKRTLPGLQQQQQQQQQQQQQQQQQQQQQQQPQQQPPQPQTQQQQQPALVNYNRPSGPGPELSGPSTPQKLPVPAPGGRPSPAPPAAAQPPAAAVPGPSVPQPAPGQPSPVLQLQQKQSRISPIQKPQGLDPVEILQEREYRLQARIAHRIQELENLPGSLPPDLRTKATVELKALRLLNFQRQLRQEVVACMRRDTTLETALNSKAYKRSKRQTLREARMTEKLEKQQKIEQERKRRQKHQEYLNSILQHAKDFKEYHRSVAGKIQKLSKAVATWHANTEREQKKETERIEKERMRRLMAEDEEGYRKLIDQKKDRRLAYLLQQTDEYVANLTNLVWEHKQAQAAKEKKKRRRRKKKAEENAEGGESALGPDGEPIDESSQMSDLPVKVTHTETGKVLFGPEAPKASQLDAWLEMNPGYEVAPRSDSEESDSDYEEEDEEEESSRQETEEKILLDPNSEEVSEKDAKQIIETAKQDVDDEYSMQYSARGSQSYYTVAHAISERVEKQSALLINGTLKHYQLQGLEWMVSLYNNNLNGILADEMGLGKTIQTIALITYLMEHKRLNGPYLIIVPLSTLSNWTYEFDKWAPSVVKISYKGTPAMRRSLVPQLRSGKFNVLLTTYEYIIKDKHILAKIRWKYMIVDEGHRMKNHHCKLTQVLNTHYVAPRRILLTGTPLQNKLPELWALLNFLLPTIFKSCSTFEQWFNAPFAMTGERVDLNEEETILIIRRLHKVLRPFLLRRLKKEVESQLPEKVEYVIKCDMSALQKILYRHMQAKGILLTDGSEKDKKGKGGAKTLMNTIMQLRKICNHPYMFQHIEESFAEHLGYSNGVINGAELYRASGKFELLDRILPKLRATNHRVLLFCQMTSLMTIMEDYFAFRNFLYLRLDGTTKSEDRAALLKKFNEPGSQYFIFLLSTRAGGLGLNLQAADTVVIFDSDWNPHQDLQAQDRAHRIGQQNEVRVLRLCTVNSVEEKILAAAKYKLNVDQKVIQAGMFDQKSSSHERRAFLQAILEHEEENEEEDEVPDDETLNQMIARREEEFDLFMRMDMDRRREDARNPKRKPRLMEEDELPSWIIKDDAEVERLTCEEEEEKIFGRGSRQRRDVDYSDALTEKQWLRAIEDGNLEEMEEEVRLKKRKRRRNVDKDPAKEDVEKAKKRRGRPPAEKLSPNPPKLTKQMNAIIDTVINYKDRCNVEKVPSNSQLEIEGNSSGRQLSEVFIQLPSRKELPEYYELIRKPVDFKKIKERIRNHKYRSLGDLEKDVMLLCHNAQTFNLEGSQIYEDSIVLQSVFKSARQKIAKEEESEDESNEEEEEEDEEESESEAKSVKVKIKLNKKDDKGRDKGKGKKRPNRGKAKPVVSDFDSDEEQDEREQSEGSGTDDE

Compound | BRM Max % Inhibition (BRM) [%] | IC50 (BRM) [µM] | IC50 (BRG-1) [µM] | Emax (BRG-1) [%]
C[C@@H]1CN(c2cccc(-c3csc(NC(=O)CNC(=O)c4ccc5c(c4)C(C)(O)CCO5)n3)c2)C[C@H](C)O1 (stereo partly drawn) [Compound 136, N-[2-[[4-[3-[(cis)-2,6-dimethylmorpholin-4-yl]phenyl]thiazol-2-yl]amino]-2-oxo-ethyl]-4-hydroxy-4-methylchromane-6-carboxamide] | >90 | 0.1 to 1 | 1 to 5 | > 70
C[C@@H]1CN(c2cccc(-c3csc(NC(=O)CNC(=O)c4cccc5c4OCC[C@@]5(C)CO)n3)c2)C[C@H](C)O1 [Compound 138, (R)-N-(2-((4-(3-((cis)-2,6-dimethylmorpholino)phenyl)thiazol-2-yl)amino)-2-oxoethyl)-4-(hydroxymethyl)-4-methylchroman-8-carboxamide] | >90 | 0.1 to 1 | > 5 | > 50
C[C@@H]1CN(c2cccc(-c3csc(NC(=O)CNC(=O)c4ccnc(C(C)(C)CO)c4)n3)c2)C[C@H](C)O1 [Compound 139, N-[2-[[4-[3-[(cis)-2,6-dimethylmorpholin-4-yl]phenyl]thiazol-2-yl]amino]-2-oxo-ethyl]-2-(2-hydroxy-1,1-dimethyl-ethyl)pyridine-4-carboxamide] | >95 | 0.1 to 1 | 1 to 5 | > 70
C[C@@H]1CN(c2cccc(-c3csc(NC(=O)CNC(=O)c4ccc5c(c4)[C@@H]([C@H](C)O)CC5)n3)n2)C[C@H](C)O1 [Compound 140, (3S)-N-[2-[[4-[6-[(cis)-2,6-dimethylmorpholin-4-yl]-2-pyridyl]thiazol-2-yl]amino]-2-oxo-ethyl]-3-[(1S)-1-hydroxyethyl]indane-5-carboxamide] | >95 | 0.1 to 1 | > 5 | > 50
C[C@@H]1CN(c2cccc(-c3csc(NC(=O)CNC(=O)c4ccc5c(c4)[C@H]([C@H](C)O)CC5)n3)n2)C[C@H](C)O1 [Compound 141, (3R)-N-[2-[[4-[6-[(cis)-2,6-dimethylmorpholin-4-yl]-2-pyridyl]thiazol-2-yl]amino]-2-oxo-ethyl]-3-[(1S)-1-hydroxyethyl]indane-5-carboxamide] | >80 | 0.1 to 1 | > 5 | > 60
C[C@@H]1CN(c2cccc(-c3csc(NC(=O)CNC(=O)c4ccc5c(c4)[C@@H]([C@@H](C)O)CC5)n3)n2)C[C@H](C)O1 [Compound 142, (3S)-N-[2-[[4-[6-[(cis)-2,6-dimethylmorpholin-4-yl]-2-pyridyl]thiazol-2-yl]amino]-2-oxo-ethyl]-3-[(1R)-1-hydroxyethyl]indane-5-carboxamide] | >95 | < 0.1 | 0.1 to 1 | > 80
C[C@@H]1CN(c2cccc(-c3csc(NC(=O)CNC(=O)c4cnc5c(c4)[C@](C)(CO)CC5)n3)c2)C[C@H](C)O1 [Compound 143, (R)-N-(2-((4-(3-((cis)-2,6-dimethylmorpholino)phenyl)thiazol-2-yl)amino)-2-oxoethyl)-5-(hydroxymethyl)-5-methyl-6,7-dihydro-5H-cyclopenta[b]pyridine-3-carboxamide] | >80 | 0.1 to 1 | > 5 | > 60
C[C@@H]1CN(c2cccc(-c3csc(NC(=O)CNC(=O)c4cnc5c(c4)[C@@](C)(CO)CC5)n3)c2)C[C@H](C)O1 [Compound 144, (S)-N-(2-((4-(3-((cis)-2,6-dimethylmorpholino)phenyl)thiazol-2-yl)amino)-2-oxoethyl)-5-(hydroxymethyl)-5-methyl-6,7-dihydro-5H-cyclopenta[b]pyridine-3-carboxamide] | >95 | 0.1 to 1 | 0.1 to 1 | > 80
C[C@@H]1CN(c2cccc(-c3csc(NC(=O)CNC(=O)c4cc(C(C)(C)CO)ccc4F)n3)n2)C[C@H](C)O1 [Compound 145, N-[2-[[4-[6-[(cis)-2,6-dimethylmorpholin-4-yl]-2-pyridyl]thiazol-2-yl]amino]-2-oxo-ethyl]-2-fluoro-5-(2-hydroxy-1,1-dimethyl-ethyl)benzamide] | >90 | 0.1 to 1 | 1 to 5 | > 60
C[C@@H]1CN(c2cccc(-c3csc(NC(=O)CNC(=O)c4cccc5c4OCC[C@@]5(C)C#N)n3)c2)C[C@H](C)O1 [Compound 146, (R)-4-cyano-N-(2-((4-(3-((cis)-2,6-dimethylmorpholino)phenyl)thiazol-2-yl)amino)-2-oxoethyl)-4-methylchroman-8-carboxamide] | >70 | 0.1 to 1 | > 5 | > 30
Cn1ccc2ccc(-c3csc(NC(=O)CNC(=O)c4cccc(C5(C#N)CCC5)c4)n3)cc2c1=O [Compound 147, 3-(1-cyanocyclobutyl)-N-(2-((4-(2-methyl-1-oxo-1,2-dihydroisoquinolin-7-yl)thiazol-2-yl)amino)-2-oxoethyl)benzamide] | >90 | 0.1 to 1 | 1 to 5 | > 80
C[C@@H]1CN(c2cccc(-c3csc(NC(=O)CNC(=O)c4cccc5c4OCC[C@]5(C)C#N)n3)c2)C[C@H](C)O1 [Compound 148, (S)-4-cyano-N-(2-((4-(3-((cis)-2,6-dimethylmorpholino)phenyl)thiazol-2-yl)amino)-2-oxoethyl)-4-methylchroman-8-carboxamide] | >70 | 0.1 to 1 | > 5 | > 30
C[C@@H]1CN(c2cccc(-c3csc(NC(=O)CNC(=O)c4cccc(C5(CF)COC5)c4)n3)c2)C[C@H](C)O1 [Compound 149, N-(2-((4-(3-((cis)-2,6-dimethylmorpholino)phenyl)thiazol-2-yl)amino)-2-oxoethyl)-3-(3-(fluoromethyl)oxetan-3-yl)benzamide] | >95 | 0.1 to 1 | 1 to 5 | > 70
C[C@@H]1CN(c2cccc(-c3csc(NC(=O)CNC(=O)c4cccc([C@]5(F)C[C@H](O)C5)c4)n3)c2)C[C@H](C)O1 [Compound 150, N-(2-((4-(3-((cis)-2,6-dimethylmorpholino)phenyl)thiazol-2-yl)amino)-2-oxoethyl)-3-((1r,3r)-1-fluoro-3-hydroxycyclobutyl)benzamide] | >95 | < 0.1 | 0.1 to 1 | > 90
C[C@@H]1CN(c2cccc(-c3csc(NC(=O)CNC(=O)c4cccc([C@]5(F)C[C@@H](O)C5)c4)n3)c2)C[C@H](C)O1 [Compound 151, N-(2-((4-(3-((cis)-2,6-dimethylmorpholino)phenyl)thiazol-2-yl)amino)-2-oxoethyl)-3-((1s,3s)-1-fluoro-3-hydroxycyclobutyl)benzamide] | >95 | < 0.1 | 0.1 to 1 | > 95
C[C@@H]1CN(c2cccc(-c3csc(NC(=O)CNC(=O)c4ccc5c(c4)[C@](C)(C#N)CC5)n3)n2)C[C@H](C)O1 [Compound 152, (R)-3-cyano-N-(2-((4-(6-((cis)-2,6-dimethylmorpholino)pyridin-2-yl)thiazol-2-yl)amino)-2-oxoethyl)-3-methyl-2,3-dihydro-1H-indene-5-carboxamide] | >95 | < 0.1 | < 0.1 | > 95
C[C@@H]1CN(c2cccc(-c3csc(NC(=O)CNC(=O)c4ccc5c(c4)[C@](C)(C#N)CCO5)n3)n2)C[C@H](C)O1 [Compound 153, (R)-4-cyano-N-(2-((4-(6-((cis)-2,6-dimethylmorpholino)pyridin-2-yl)thiazol-2-yl)amino)-2-oxoethyl)-4-methylchroman-6-carboxamide] | >95 | < 0.1 | < 0.1 | > 95
Cn1ncc(-c2cccc(-c3csc(NC(=O)CNC(=O)c4cccc(C(C)(C)CO)c4)n3)n2)n1 [Compound 154, 3-(1-hydroxy-2-methylpropan-2-yl)-N-(2-((4-(6-(2-methyl-2H-1,2,3-triazol-4-yl)pyridin-2-yl)thiazol-2-yl)amino)-2-oxoethyl)benzamide] | >90 | 0.1 to 1 | 1 to 5 | > 60
Cn1ncc(-c2cccc(-c3csc(NC(=O)CNC(=O)c4ccc5c(c4)C(C)(CO)CC5)n3)n2)n1 (stereo not drawn) [Compound 155, 3-(hydroxymethyl)-3-methyl-N-(2-((4-(6-(2-methyl-2H-1,2,3-triazol-4-yl)pyridin-2-yl)thiazol-2-yl)amino)-2-oxoethyl)-2,3-dihydro-1H-indene-5-carboxamide] | >90 | 0.1 to 1 | 1 to 5 | > 60
C[C@@H]1CN(c2cccc(-c3csc(NC(=O)CNC(=O)c4cccc([C@H]5COC[C@@H]5O)c4)n3)c2)C[C@H](C)O1 [Compound 156, N-(2-((4-(3-((cis)-2,6-dimethylmorpholino)phenyl)thiazol-2-yl)amino)-2-oxoethyl)-3-((3S,4R)-4-hydroxytetrahydrofuran-3-yl)benzamide] | >80 | 0.1 to 1 | > 5 | > 30
C[C@@H]1CN(c2cccc(-c3csc(NC(=O)CNC(=O)c4cccc([C@@H]5COC[C@H]5O)c4)n3)c2)C[C@H](C)O1 [Compound 157, N-(2-((4-(3-((cis)-2,6-dimethylmorpholino)phenyl)thiazol-2-yl)amino)-2-oxoethyl)-3-((3R,4S)-4-hydroxytetrahydrofuran-3-yl)benzamide] | >70 | 0.1 to 1 | > 5 | > 30
